{"source": "BindingDB's records for doi:10.7270/Q2KP80J0", "about": "(The Scripps Research Institute Molecular Screening Center, 2007)", "target": "T1, Ephrin type-B receptor 4 (Homo sapiens, UniProt P54760)", "T1 sequence (P54760 whole entry)": "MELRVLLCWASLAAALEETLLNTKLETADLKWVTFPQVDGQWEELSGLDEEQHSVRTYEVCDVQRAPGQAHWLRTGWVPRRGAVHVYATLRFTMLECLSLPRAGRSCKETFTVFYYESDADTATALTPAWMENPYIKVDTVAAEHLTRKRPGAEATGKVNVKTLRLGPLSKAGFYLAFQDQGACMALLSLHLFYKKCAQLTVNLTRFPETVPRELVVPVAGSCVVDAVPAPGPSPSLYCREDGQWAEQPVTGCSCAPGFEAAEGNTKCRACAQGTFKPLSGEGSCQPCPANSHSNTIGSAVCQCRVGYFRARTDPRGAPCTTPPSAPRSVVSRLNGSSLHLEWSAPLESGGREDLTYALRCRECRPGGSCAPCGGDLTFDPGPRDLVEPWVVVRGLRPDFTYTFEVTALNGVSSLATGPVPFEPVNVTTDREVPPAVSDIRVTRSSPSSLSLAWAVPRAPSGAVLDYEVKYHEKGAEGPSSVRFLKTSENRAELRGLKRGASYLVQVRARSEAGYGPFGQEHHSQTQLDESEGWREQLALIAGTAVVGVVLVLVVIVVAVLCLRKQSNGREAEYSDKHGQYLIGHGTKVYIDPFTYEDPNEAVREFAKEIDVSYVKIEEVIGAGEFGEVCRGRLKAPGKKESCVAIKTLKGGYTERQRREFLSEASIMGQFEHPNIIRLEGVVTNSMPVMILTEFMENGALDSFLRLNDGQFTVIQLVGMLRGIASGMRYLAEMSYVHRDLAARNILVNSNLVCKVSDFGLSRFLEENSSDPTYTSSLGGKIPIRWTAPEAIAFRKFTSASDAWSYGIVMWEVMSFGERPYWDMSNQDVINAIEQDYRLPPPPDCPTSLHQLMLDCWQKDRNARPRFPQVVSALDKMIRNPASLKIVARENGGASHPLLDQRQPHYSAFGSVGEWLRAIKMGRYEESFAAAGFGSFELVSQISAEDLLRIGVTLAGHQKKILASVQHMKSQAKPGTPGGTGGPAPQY", "assay": "EphB4-ephrin-B2 interaction antagonists, dose response, biochemical, TNYL-RAW peptide displacement (AID 835)", "key": {"[1]": {"conditions": "inactive by the depositor's call"}}}
{"smiles": "CCCc1[nH]nc2c1C(c1ccc(OC)c(Cn3nnc4ccccc43)c1)C(C#N)C(=N)O2", "note": "(stereo not drawn)", "values": [{"measurement": "IC50", "value": "> 79.4", "unit": "µM"}]}
{"smiles": "O=C1CCCc2c1[nH]c1ccccc21", "values": [{"measurement": "IC50", "value": "> 79.4", "unit": "µM"}]}
{"smiles": "CC(C)CCn1c(SCCN2CCOCC2)nc2c1c(=O)[nH]c(=O)n2C", "values": [{"measurement": "IC50", "value": "> 79.4", "unit": "µM"}]}
{"smiles": "CCOc1cccc(-n2c(O)cc(=O)[nH]c2=O)c1", "values": [{"measurement": "IC50", "value": "> 79.4", "unit": "µM"}]}
{"smiles": "CC(C)(C)C1CCC2(CC1)SCC(=O)N2c1ccccc1", "note": "(stereo not drawn)", "values": [{"measurement": "IC50", "value": "> 79.4", "unit": "µM"}]}
{"smiles": "CCN1C(=O)C(=CNc2ccc(N3CCOCC3)cc2)C(=O)N(CC)C1=S", "values": [{"measurement": "IC50", "value": "> 79.4", "unit": "µM"}]}
{"smiles": "Cc1ccc(Cn2c(SCCN3CCCCC3)nc3c2c(=O)n(C)c(=O)n3C)cc1", "note": "[1,3-Dimethyl-7-(4-methyl-benzyl)-8-(2-piperidin-1-yl-ethylsulfanyl)-3,7-dihydro-purine-2,6-dione]", "values": [{"measurement": "IC50", "value": "> 79.4", "unit": "µM"}]}
{"smiles": "Cn1cc(S(=O)(=O)N2CCN(c3ccccc3)CC2)c(=O)n(C)c1=O", "note": "[1,3-dimethyl-5-(4-phenylpiperazin-1-yl)sulfonyl-pyrimidine-2,4-dione]", "values": [{"measurement": "IC50", "value": "> 79.4", "unit": "µM"}]}
{"smiles": "C=CCn1c(NCCc2ccccc2)nc2c1c(=O)n(C)c(=O)n2C", "note": "[1,3-dimethyl-8-(2-phenylethylamino)-7-prop-2-enyl-purine-2,6-dione]", "values": [{"measurement": "IC50", "value": "> 79.4", "unit": "µM"}]}
{"smiles": "O=C(c1ccc(COc2ccccc2Cl)o1)N1CCN(Cc2ccc3c(c2)OCO3)CC1", "note": "[1-(1,3-benzodioxol-5-ylmethyl)-4-{5-[(2-chlorophenoxy)methyl]-2-furoyl}piperazine]", "values": [{"measurement": "IC50", "value": "> 79.4", "unit": "µM"}]}
{"smiles": "Cn1c(=O)c(NCCO)c2c3c(cccc31)C(=O)c1ccccc1-2", "note": "[1-(2-Hydroxy-ethylamino)-3-methyl-3H-naphtho[1,2,3-de]quinoline-2,7-dione]", "values": [{"measurement": "IC50", "value": 8.4, "unit": "µM"}]}
{"smiles": "CC(=O)c1ccc(-n2nnnc2SCC(=O)N2CCc3ccccc3C2)cc1", "note": "[1-(3,4-dihydro-1H-isoquinolin-2-yl)-2-[[1-(4-ethanoylphenyl)-1,2,3,4-tetrazol-5-yl]sulfanyl]ethanone]", "values": [{"measurement": "IC50", "value": "> 79.4", "unit": "µM"}]}
{"smiles": "Cc1ccc(N2C(=O)C(O)(C(F)(F)F)C3=C2CC(C)(C)CC3=O)cc1C", "note": "(stereo not drawn) [1-(3,4-dimethylphenyl)-3-hydroxy-6,6-dimethyl-3-(trifluoromethyl)-3,5,6,7-tetrahydro-1H-indole-2,4-dione]", "values": [{"measurement": "IC50", "value": "> 79.4", "unit": "µM"}]}
{"smiles": "CCNc1c2c3c(cccc3n(C)c1=O)C(=O)c1ccccc1-2", "note": "[1-(ethylamino)-3-methyl-3H-naphtho[1,2,3-de]quinoline-2,7-dione]", "values": [{"measurement": "IC50", "setting": "[1]", "value": 25.7, "unit": "µM"}]}
{"smiles": "CCOC(=O)c1sc2nc(C)c3c(c2c1N)CC(C)(C)OC3", "note": "[1-Amino-5,8,8-trimethyl-8,9-dihydro-6H-7-oxa-3-thia-4-aza-cyclopenta[a]naphthalene-2-carboxylic acid ethyl ester]", "values": [{"measurement": "IC50", "value": "> 79.4", "unit": "µM"}]}
{"smiles": "COCCn1c(C)cc(C(=O)COc2nc3ccccc3nc2C)c1C", "note": "[1-[1-(2-methoxyethyl)-2,5-dimethyl-3-pyrrolyl]-2-[(3-methyl-2-quinoxalinyl)oxy]ethanone]", "values": [{"measurement": "IC50", "value": "> 79.4", "unit": "µM"}]}
{"smiles": "Cc1cc(C(=O)CSc2nnc(Nc3ccccc3F)s2)c(C)n1CC1CCCO1", "note": "(stereo not drawn) [1-[2,5-dimethyl-1-(2-oxolanylmethyl)-3-pyrrolyl]-2-[[5-(2-fluoroanilino)-1,3,4-thiadiazol-2-yl]thio]ethanone]", "values": [{"measurement": "IC50", "value": "> 79.4", "unit": "µM"}]}
{"smiles": "CC(=O)c1ccc(N2CCN(C(=O)c3ccc(Br)cc3)CC2)c(F)c1", "note": "[1-[4-[4-(4-bromobenzoyl)piperazin-1-yl]-3-fluorophenyl]ethanone]", "values": [{"measurement": "IC50", "value": "> 79.4", "unit": "µM"}]}
{"smiles": "CCOC(=O)C1CCN(S(=O)(=O)Cc2ccccc2)C1=O", "note": "(stereo not drawn) [1-benzylsulfonyl-2-keto-pyrrolidine-3-carboxylic acid ethyl ester]", "values": [{"measurement": "IC50", "value": "> 79.4", "unit": "µM"}]}
{"smiles": "CC(c1ccccc1)C1CC(=O)N(C2CCCCC2)C1=O", "note": "(stereo not drawn) [1-cyclohexyl-3-(1-phenylethyl)-2,5-pyrrolidinedione]", "values": [{"measurement": "IC50", "value": "> 79.4", "unit": "µM"}]}
{"smiles": "CCn1c(CSc2nnc3ccccn23)nc2cc(C(=O)O)ccc21", "note": "[1-ethyl-2-[([1,2,4]triazolo[4,3-a]pyridin-3-ylthio)methyl]-5-benzimidazolecarboxylic acid]", "values": [{"measurement": "IC50", "setting": "[1]", "value": 20.4, "unit": "µM"}]}
{"smiles": "c1coc(-c2nc(-c3ccco3)c(-c3ccco3)nc2-c2ccco2)c1", "note": "[2,3,5,6-tetrakis(2-furanyl)pyrazine]", "values": [{"measurement": "IC50", "value": "> 79.4", "unit": "µM"}]}
{"smiles": "O=C(Nc1cccnc1)C1COc2ccccc2O1", "note": "(stereo not drawn) [2,3-Dihydro-benzo[1,4]dioxine-2-carboxylic acid pyridin-3-ylamide]", "values": [{"measurement": "IC50", "value": "> 79.4", "unit": "µM"}]}
